Like-named read-outs stand apart in the source and are kept apart here.
How the values were obtained:
Experiment in all cases: Kinase selectivity, P33-radiolabeled assay
Assay type in all cases: biochemical
Conditions in all cases: 10 μM ATP
ALK5/TGFBR1 = biological target: T1, ALK5/TGFBR1 (Homo sapiens, UniProt P36897)
T1 construct: purchased Reaction Biology Corp
T1 sequence (P36897 34-503): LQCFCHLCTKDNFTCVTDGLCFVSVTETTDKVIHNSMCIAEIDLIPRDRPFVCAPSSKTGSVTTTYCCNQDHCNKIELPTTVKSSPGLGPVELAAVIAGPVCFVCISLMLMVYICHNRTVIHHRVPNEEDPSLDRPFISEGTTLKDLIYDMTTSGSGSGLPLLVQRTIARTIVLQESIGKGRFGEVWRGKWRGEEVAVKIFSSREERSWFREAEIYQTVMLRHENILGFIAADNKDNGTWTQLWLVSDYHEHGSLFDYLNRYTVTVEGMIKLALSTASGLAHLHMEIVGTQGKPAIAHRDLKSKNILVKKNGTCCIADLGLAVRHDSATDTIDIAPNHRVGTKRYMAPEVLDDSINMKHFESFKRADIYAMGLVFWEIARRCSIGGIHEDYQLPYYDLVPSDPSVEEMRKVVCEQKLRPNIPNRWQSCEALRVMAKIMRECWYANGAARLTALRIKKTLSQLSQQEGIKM
In short: (§1)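 Reactions contained 10 μM ATP and 10 μM test compound, each run in duplicate. Kinase activity is expressed as a percentage of DMSO-treated controls.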

MAPKAPK2 = biological target: T2, MAPKAPK2 (Homo sapiens, UniProt P49137)
T2 construct: purchased Reaction Biology Corp
In short: as §1

STK32B/YANK2 = biological target: T3, STK32B/YANK2 (Homo sapiens, UniProt Q9NY57)
T3 construct: purchased Reaction Biology Corp
In short: as §1

CDK9/cyclin K = biological target: T4, CDK9/cyclin K (Homo sapiens, UniProt P50750)
T4 construct: purchased Reaction Biology Corp
In short: as §1

NEK11 = biological target: T5, NEK11 (Homo sapiens, UniProt Q8NG66)
T5 construct: purchased Reaction Biology Corp
T5 sequence (Q8NG66 1-645): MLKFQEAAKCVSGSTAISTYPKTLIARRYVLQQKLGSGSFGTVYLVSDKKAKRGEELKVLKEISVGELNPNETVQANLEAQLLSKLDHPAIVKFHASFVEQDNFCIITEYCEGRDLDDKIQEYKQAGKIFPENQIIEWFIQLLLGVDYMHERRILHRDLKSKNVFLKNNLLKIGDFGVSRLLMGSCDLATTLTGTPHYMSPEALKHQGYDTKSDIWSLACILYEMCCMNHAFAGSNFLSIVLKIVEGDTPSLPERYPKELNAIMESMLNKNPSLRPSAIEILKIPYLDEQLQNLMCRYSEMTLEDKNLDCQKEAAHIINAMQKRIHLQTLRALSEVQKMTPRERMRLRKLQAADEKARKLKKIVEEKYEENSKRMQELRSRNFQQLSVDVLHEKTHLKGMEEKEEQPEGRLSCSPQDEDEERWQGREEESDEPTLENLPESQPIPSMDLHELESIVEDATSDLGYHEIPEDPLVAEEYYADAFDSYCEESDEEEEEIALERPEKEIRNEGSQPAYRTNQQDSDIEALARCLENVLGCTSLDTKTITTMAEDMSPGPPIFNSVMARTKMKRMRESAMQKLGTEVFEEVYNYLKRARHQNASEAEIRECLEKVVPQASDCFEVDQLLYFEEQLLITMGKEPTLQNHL
In short: as §1

STK22D/TSSK1 = biological target: T6, STK22D/TSSK1 (Homo sapiens, UniProt Q9BXA7)
T6 construct: purchased Reaction Biology Corp
T6 sequence (Q9BXA7 1-367): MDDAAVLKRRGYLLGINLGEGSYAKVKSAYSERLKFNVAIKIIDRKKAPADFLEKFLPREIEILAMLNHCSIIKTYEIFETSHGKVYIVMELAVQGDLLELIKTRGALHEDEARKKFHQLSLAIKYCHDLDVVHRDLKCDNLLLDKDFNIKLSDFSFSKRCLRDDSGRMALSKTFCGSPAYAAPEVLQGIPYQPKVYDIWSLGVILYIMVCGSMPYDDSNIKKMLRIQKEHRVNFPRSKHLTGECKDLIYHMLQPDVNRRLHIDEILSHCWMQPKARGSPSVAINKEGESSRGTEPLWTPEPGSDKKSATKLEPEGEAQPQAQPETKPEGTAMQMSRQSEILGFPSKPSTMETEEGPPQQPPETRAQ
In short: as §1

c-Kit = biological target: T7, c-Kit (Homo sapiens, UniProt P10721)
T7 construct: purchased Reaction Biology Corp
In short: as §1

EPHA4 = biological target: T8, EPHA4 (Homo sapiens, UniProt P54764)
T8 construct: purchased Reaction Biology Corp
In short: as §1

[1] = read-out: % Enzyme Activity (relative to DMSO controls) AVG
[2] = read-out: % Enzyme Activity (relative to DMSO controls) Data 1
[3] = read-out: % Enzyme Activity (relative to DMSO controls) Data 2

T4 sequence (P50750 whole entry): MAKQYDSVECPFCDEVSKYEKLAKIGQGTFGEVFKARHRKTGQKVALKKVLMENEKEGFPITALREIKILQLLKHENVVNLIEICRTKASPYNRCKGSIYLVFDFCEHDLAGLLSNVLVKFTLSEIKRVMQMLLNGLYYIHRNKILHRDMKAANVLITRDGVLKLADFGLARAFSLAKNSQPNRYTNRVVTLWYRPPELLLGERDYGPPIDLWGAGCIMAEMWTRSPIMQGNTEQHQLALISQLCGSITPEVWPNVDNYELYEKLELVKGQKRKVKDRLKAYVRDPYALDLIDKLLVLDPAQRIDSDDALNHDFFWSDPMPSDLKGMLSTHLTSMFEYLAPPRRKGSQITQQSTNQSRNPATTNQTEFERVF
T4 sequence (O75909 whole entry partner): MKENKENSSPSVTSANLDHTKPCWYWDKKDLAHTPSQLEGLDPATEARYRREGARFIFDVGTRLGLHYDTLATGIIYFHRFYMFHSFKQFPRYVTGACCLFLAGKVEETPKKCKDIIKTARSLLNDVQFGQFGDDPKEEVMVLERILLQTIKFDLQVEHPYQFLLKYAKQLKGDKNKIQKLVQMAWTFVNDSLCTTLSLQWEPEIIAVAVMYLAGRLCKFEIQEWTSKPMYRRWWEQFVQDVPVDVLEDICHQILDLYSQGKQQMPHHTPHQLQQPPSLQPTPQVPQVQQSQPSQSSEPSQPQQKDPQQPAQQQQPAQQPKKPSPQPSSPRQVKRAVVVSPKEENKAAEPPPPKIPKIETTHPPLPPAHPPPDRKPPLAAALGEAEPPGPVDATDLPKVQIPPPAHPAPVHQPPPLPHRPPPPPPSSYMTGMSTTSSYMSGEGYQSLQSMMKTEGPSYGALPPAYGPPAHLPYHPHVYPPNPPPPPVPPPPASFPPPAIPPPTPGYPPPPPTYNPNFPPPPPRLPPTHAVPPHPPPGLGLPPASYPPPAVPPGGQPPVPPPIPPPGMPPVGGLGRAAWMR
T2 sequence (P49137 whole entry): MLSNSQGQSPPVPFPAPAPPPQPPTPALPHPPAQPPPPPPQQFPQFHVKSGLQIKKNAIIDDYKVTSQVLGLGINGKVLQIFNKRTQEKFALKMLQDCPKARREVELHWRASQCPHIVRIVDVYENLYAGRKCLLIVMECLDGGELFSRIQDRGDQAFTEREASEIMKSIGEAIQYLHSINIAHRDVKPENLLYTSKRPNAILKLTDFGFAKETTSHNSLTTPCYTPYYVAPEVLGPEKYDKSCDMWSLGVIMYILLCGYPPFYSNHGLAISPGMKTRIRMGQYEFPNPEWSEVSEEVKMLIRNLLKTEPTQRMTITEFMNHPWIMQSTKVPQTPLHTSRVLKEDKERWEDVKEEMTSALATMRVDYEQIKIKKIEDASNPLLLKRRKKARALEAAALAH
T8 sequence (P54764 20-986): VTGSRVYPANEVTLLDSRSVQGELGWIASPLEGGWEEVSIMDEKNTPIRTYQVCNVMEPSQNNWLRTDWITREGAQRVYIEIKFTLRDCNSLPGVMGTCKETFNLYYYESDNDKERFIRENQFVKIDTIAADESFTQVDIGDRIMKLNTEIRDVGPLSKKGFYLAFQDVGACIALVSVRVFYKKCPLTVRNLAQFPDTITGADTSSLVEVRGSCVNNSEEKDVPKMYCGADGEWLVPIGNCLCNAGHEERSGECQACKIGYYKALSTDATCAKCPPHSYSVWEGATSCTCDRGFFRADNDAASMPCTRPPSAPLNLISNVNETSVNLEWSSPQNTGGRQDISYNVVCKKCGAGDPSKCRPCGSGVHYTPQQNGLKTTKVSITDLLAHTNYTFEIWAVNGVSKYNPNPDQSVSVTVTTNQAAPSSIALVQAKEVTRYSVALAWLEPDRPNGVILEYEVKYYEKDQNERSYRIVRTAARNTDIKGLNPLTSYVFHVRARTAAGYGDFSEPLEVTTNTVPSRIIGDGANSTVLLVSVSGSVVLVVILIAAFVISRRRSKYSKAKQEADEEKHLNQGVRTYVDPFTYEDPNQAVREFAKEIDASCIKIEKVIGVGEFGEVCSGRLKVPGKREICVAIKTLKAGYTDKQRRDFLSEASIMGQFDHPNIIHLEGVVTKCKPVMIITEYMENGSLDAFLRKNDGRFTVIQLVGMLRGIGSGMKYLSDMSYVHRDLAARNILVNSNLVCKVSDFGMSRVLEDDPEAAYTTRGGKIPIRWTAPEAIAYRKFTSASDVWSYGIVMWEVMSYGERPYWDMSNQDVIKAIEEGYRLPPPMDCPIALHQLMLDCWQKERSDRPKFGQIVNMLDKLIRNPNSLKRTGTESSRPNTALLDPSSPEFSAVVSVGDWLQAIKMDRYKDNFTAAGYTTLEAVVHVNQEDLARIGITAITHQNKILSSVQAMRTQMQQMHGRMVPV
T7 sequence (P10721 26-976): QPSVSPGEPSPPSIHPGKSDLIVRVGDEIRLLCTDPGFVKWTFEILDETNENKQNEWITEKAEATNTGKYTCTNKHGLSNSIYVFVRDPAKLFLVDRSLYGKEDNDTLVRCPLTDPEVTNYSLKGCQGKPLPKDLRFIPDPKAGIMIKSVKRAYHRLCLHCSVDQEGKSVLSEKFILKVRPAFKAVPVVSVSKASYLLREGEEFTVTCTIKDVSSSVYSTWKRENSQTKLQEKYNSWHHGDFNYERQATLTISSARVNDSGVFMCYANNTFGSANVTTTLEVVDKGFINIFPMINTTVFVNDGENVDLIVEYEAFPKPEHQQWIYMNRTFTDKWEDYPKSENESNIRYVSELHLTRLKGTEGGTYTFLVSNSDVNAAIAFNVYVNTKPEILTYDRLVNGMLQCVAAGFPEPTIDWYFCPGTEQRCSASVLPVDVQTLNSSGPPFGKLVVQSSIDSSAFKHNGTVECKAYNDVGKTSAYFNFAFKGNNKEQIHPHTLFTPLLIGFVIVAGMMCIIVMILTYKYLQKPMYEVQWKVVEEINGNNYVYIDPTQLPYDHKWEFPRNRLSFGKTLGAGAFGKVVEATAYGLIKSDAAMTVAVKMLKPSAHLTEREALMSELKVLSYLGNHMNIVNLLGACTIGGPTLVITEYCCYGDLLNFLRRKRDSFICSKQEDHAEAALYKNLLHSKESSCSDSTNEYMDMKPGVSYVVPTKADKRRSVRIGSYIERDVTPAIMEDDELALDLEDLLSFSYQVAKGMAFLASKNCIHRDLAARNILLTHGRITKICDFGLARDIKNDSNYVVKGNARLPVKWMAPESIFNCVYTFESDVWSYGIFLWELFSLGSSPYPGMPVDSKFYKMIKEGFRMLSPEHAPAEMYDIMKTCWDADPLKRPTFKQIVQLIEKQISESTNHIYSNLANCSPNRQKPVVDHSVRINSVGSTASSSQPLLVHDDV
T3 sequence (Q9NY57 whole entry): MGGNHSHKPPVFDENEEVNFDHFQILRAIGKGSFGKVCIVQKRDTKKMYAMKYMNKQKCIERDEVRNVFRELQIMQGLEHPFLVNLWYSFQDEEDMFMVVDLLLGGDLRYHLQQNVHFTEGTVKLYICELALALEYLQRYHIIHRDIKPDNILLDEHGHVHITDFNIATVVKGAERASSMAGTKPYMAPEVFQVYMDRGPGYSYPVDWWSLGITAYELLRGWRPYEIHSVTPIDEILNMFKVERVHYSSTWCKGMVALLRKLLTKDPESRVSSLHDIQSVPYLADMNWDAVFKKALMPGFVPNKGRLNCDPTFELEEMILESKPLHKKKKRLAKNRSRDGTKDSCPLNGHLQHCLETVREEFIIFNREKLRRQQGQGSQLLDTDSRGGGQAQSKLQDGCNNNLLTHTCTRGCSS

Molecule CC(C)(C)C(=O)N1N=CC[C@H]1c1ccccc1 [GSK′963] has a remaining activity at 10 µM (ALK5/TGFBR1; [1]) of 94.1%, a remaining activity at 10 µM (ALK5/TGFBR1; [2]) of 97% and a remaining activity at 10 µM (ALK5/TGFBR1; [3]) of 91.2%. It also gave a remaining activity at 10 µM (MAPKAPK2; [1]) of 112%, a remaining activity at 10 µM (MAPKAPK2; [2]) of 115% and a remaining activity at 10 µM (MAPKAPK2; [3]) of 109%. For the same molecule, the remaining activity at 10 µM (STK32B/YANK2; [1]) was 98.5%, the remaining activity at 10 µM (STK32B/YANK2; [2]) was 98.6% and the remaining activity at 10 µM (STK32B/YANK2; [3]) was 98.4%. It also gave a remaining activity at 10 µM (CDK9/cyclin K; [1]) of 114%, a remaining activity at 10 µM (CDK9/cyclin K; [2]) of 112% and a remaining activity at 10 µM (CDK9/cyclin K; [3]) of 116%. The remaining activity at 10 µM (NEK11; [1]) was 79.1%, the remaining activity at 10 µM (NEK11; [2]) was 77.3% and the remaining activity at 10 µM (NEK11; [3]) was 80.9%. The remaining activity at 10 µM (STK22D/TSSK1; [1]) was 110%, the remaining activity at 10 µM (STK22D/TSSK1; [2]) was 108% and the remaining activity at 10 µM (STK22D/TSSK1; [3]) was 112%. For the same molecule, the remaining activity at 10 µM (c-Kit; [1]) was 83.6%, the remaining activity at 10 µM (c-Kit; [2]) was 83% and the remaining activity at 10 µM (c-Kit; [3]) was 84.1%. The remaining activity at 10 µM (EPHA4; [1]) was 99.2%, the remaining activity at 10 µM (EPHA4; [2]) was 99.2% and the remaining activity at 10 µM (EPHA4; [3]) was 99.2%.

From PMC4979471 (Cell Death Discovery, 2015)
